# Measurements: US20240254119A1 (THIRD HARMONIC BIO, INC., priority 2022, published 2024)
# Molecular target: T1, CSF-1R (Homo sapiens, UniProt P07333)
# T1 construct: purchased Invitrogen PV3249 (lot 662393N)
# Experiment: Caliper biochemical assay, CSF-1R
# Settings: Table 6
# Description: (§1) Enzyme, substrate, and cofactors (ATP and Mn^2+) are combined in a well of a microtiter plate and incubated for 3 hours at 25° C. At the end of the incubation, the reaction is quenched by the addition of an EDTA-containing buffer. Substrate and product are separated electrophoretically using the microfluidic-based LabChip 3000 Drug Discovery System from Caliper Life Sciences* and quantitated by fluorescence intensity.
# (§2) The substrate used in the CSF-1R and PDGFRα assay is FAM-[…]-CONH2 (FAM is carboxyfluorescein). Peptide should be >95% purity. The substrate for the KIT assay is FAM-[…]-NH2.
# (§3) • 1. To a well of a 384-well plate add 5 μL of 2× enzyme buffer (or control) • 2. Add 100 nL of 100× compound. • 3. Add 5 μL of 2× substrate buffer. • 4. Incubate plate at 25° C. for 3 hours. • 5. Add 10 uL of […]. • 6. Read plate LabChip 3000 Drug Discovery System
# (§4) • 3 hours at 25° C. where 100% Inhibitor: No enzyme.
# T1 sequence (P07333 20-972): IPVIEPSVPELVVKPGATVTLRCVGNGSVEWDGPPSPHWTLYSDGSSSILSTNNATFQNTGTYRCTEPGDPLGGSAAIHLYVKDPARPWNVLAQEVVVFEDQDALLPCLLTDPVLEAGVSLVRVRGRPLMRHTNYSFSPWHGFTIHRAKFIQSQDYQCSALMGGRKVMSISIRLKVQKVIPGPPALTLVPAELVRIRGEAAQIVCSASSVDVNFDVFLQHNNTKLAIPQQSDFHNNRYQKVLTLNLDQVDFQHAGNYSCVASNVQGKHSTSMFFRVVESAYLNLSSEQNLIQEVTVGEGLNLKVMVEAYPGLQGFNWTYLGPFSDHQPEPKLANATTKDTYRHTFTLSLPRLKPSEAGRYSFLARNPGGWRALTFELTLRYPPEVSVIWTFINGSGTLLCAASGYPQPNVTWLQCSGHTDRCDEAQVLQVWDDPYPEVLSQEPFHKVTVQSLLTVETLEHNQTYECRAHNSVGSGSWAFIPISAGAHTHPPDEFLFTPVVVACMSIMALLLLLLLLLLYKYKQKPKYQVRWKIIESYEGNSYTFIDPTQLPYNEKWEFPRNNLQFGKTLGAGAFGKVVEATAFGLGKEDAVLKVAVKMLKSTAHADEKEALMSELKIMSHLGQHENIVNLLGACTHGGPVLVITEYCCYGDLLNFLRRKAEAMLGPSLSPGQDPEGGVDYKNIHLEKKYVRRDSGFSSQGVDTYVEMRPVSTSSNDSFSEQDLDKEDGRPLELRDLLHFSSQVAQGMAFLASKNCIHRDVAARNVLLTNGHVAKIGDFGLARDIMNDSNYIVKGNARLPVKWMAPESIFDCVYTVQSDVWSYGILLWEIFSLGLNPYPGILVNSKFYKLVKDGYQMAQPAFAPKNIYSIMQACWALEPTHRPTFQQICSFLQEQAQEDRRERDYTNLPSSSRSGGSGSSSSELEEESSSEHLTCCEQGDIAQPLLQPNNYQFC
row,IC50,SMILES
1,0.05 to 0.5 µM,Cc1ccc(-c2noc(C3CCN3CCOC(F)(F)F)n2)cc1NC(=O)c1cnc2ccccn12 (racemic) [Compound I-168]
2,≤ 0.05 µM,Cc1ccc(-c2noc(C3CCCCN3S(C)(=O)=O)n2)cc1NC(=O)c1cnc2ccccn12 (racemic) [Compound I-174]
3,0.05 to 0.5 µM,Cc1ccc(-c2noc([C@@H]3CCN3C3CC3)n2)cc1NC(=O)c1cnc2ccccn12 (racemic) [Compound I-177]
4,≤ 0.05 µM,Cc1ccc(-c2noc([C@@H]3CCN3CC(F)(F)F)n2)cc1NC(=O)c1cnc2ccccn12 (racemic) [Compound I-178]
5,0.5 to 5 µM,COCCN1CC[C@H]1c1nc(-c2ccc(C)c(NC(=O)c3cnc4ccccn34)c2)no1 (racemic) [Compound I-179]
6,0.05 to 0.5 µM,CCN1CC[C@H]1c1nc(-c2ccc(C)c(NC(=O)c3cnc4ccccn34)c2)no1 (racemic) [Compound I-180]
7,≤ 0.05 µM,Cc1ccc(-c2noc([C@H](C)NS(=O)(=O)c3cnn(C)c3)n2)cc1NC(=O)c1cnc2ccccn12 (racemic) [Compound I-181]
8,0.05 to 0.5 µM,Cc1ccc(-c2noc(CC(O)C(F)(F)F)n2)cc1NC(=O)c1cnc2ccccn12 (racemic) [Compound I-183]
9,0.05 to 0.5 µM,Cc1ccc(-c2noc([C@@H]3CCC(F)(F)CN3)n2)cc1NC(=O)c1cnc2ccccn12 (racemic) [Compound I-198]
10,0.05 to 0.5 µM,Cc1ccc(-c2noc(C3CCN3S(C)(=O)=O)n2)cc1NC(=O)c1cnc2ccccn12 (racemic) [Compound I-356]

# Molecular target: T2, wtKIT (Homo sapiens, UniProt P10721)
# T2 construct: 1888289AM in the reaction mixtures
# T2 sequence (P10721 26-976): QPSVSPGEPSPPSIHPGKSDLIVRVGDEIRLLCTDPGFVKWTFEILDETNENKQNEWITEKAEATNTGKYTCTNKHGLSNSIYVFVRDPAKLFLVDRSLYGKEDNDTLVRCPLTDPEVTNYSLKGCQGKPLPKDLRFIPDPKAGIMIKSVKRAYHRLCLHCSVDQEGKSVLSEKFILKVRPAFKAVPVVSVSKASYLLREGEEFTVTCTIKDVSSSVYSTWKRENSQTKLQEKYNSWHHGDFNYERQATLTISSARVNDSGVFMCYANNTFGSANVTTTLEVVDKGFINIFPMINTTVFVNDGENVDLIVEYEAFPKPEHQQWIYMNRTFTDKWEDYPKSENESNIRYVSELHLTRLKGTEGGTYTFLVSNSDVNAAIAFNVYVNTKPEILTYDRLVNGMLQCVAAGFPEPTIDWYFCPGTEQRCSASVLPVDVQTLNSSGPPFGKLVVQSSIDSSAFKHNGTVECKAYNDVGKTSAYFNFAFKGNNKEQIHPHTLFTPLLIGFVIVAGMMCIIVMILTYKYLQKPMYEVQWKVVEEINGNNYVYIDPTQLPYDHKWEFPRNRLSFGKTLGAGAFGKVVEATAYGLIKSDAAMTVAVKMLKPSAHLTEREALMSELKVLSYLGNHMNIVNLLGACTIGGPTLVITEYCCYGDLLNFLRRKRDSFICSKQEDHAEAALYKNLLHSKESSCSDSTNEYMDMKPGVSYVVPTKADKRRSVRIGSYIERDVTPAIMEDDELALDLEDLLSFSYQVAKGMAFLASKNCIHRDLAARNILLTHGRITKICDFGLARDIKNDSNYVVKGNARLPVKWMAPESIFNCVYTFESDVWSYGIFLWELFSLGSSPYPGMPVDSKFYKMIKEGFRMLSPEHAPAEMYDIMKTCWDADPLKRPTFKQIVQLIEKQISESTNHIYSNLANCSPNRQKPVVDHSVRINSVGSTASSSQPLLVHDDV
# Experiment: Caliper biochemical assay, wtKIT
# Settings: Table 6, read-out: KIT Biochemical IC50 avg
# Description: as §1, §2, §3, §4
# • 100 mM HEPES, pH 7.5 0.1% BSA • 0.01% Triton X-100 • 1 mM DTT • 10 mM MnCl2 • 10 μM Sodium Orthovanadate • 10 μM Beta-Glycerophosphate • 400 μM ATP • 1% DMSO (from compound) • 1 μM FAM-[…]-CONH2 5.0 nM wtKIT Enzyme (1888289AM)* • *Specific activity may vary from lot to lot. Enzyme concentration may need to be adjusted to yield 10-20% conversion of substrate to product.
row,IC50,SMILES
1,≤ 0.05 µM,Cc1ccc(-c2noc(C3CCN3CCOC(F)(F)F)n2)cc1NC(=O)c1cnc2ccccn12 (racemic) [Compound I-168]
2,0.05 to 0.5 µM,Cc1ccc(-c2noc(C3CCCCN3S(C)(=O)=O)n2)cc1NC(=O)c1cnc2ccccn12 (racemic) [Compound I-174]
3,≤ 0.05 µM,Cc1ccc(-c2noc([C@@H]3CCN3C3CC3)n2)cc1NC(=O)c1cnc2ccccn12 (racemic) [Compound I-177]
4,≤ 0.05 µM,Cc1ccc(-c2noc([C@@H]3CCN3CC(F)(F)F)n2)cc1NC(=O)c1cnc2ccccn12 (racemic) [Compound I-178]
5,0.05 to 0.5 µM,COCCN1CC[C@H]1c1nc(-c2ccc(C)c(NC(=O)c3cnc4ccccn34)c2)no1 (racemic) [Compound I-179]
6,≤ 0.05 µM,CCN1CC[C@H]1c1nc(-c2ccc(C)c(NC(=O)c3cnc4ccccn34)c2)no1 (racemic) [Compound I-180]
7,≤ 0.05 µM,Cc1ccc(-c2noc([C@H](C)NS(=O)(=O)c3cnn(C)c3)n2)cc1NC(=O)c1cnc2ccccn12 (racemic) [Compound I-181]
8,0.05 to 0.5 µM,Cc1ccc(-c2noc(CC(O)C(F)(F)F)n2)cc1NC(=O)c1cnc2ccccn12 (racemic) [Compound I-183]
9,≤ 0.05 µM,Cc1ccc(-c2noc([C@@H]3CCC(F)(F)CN3)n2)cc1NC(=O)c1cnc2ccccn12 (racemic) [Compound I-198]
10,≤ 0.05 µM,Cc1ccc(-c2noc(C3CCN3S(C)(=O)=O)n2)cc1NC(=O)c1cnc2ccccn12 (racemic) [Compound I-356]

# Molecular target: T3, PDGFRα (Homo sapiens, UniProt P16234)
# T3 construct: purchased Millipore 14-467 (lot 26321_ACTI)
# T3 sequence (P16234 24-1089): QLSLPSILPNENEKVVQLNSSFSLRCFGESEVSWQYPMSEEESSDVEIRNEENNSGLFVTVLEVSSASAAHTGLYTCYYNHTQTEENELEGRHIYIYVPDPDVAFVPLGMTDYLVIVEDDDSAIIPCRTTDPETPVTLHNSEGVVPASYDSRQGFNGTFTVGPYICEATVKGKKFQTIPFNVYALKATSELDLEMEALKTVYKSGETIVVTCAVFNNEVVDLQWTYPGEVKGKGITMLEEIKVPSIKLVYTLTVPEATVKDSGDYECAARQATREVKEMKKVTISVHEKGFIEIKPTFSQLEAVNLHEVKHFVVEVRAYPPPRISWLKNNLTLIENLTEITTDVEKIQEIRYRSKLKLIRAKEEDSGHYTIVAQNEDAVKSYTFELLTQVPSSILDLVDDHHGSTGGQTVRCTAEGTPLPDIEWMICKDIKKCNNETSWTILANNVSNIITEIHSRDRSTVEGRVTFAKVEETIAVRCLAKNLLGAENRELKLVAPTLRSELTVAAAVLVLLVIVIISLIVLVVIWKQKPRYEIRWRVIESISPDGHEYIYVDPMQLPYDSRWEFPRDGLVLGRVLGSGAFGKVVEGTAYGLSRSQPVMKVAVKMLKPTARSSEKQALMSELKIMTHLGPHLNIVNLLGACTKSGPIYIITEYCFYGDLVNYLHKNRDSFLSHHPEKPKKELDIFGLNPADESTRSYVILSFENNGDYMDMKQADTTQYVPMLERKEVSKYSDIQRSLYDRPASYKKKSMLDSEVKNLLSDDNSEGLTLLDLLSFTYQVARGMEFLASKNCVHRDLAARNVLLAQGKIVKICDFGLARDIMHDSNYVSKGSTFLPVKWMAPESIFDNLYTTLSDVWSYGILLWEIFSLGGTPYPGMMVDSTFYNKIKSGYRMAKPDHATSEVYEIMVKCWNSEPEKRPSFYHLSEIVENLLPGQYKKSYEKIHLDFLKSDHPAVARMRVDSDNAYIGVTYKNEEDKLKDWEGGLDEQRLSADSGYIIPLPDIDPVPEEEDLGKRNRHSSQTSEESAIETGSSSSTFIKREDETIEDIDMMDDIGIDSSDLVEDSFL
# Experiment: Caliper biochemical assay, PDGFRα
# Settings: Table 6
# Description: as §1, §2, §3, §4
row,IC50,SMILES
1,0.5 to 5 µM,Cc1ccc(-c2noc(C3CCN3CCOC(F)(F)F)n2)cc1NC(=O)c1cnc2ccccn12 (racemic) [Compound I-168]
2,0.05 to 0.5 µM,Cc1ccc(-c2noc(C3CCCCN3S(C)(=O)=O)n2)cc1NC(=O)c1cnc2ccccn12 (racemic) [Compound I-174]
3,0.05 to 0.5 µM,Cc1ccc(-c2noc([C@@H]3CCN3C3CC3)n2)cc1NC(=O)c1cnc2ccccn12 (racemic) [Compound I-177]
4,0.05 to 0.5 µM,Cc1ccc(-c2noc([C@@H]3CCN3CC(F)(F)F)n2)cc1NC(=O)c1cnc2ccccn12 (racemic) [Compound I-178]
5,5 to 30 µM,COCCN1CC[C@H]1c1nc(-c2ccc(C)c(NC(=O)c3cnc4ccccn34)c2)no1 (racemic) [Compound I-179]
6,0.5 to 5 µM,CCN1CC[C@H]1c1nc(-c2ccc(C)c(NC(=O)c3cnc4ccccn34)c2)no1 (racemic) [Compound I-180]
7,0.5 to 5 µM,Cc1ccc(-c2noc([C@H](C)NS(=O)(=O)c3cnn(C)c3)n2)cc1NC(=O)c1cnc2ccccn12 (racemic) [Compound I-181]
8,5 to 30 µM,Cc1ccc(-c2noc(CC(O)C(F)(F)F)n2)cc1NC(=O)c1cnc2ccccn12 (racemic) [Compound I-183]
9,0.5 to 5 µM,Cc1ccc(-c2noc([C@@H]3CCC(F)(F)CN3)n2)cc1NC(=O)c1cnc2ccccn12 (racemic) [Compound I-198]
10,0.5 to 5 µM,Cc1ccc(-c2noc(C3CCN3S(C)(=O)=O)n2)cc1NC(=O)c1cnc2ccccn12 (racemic) [Compound I-356]

# Test system: not listed separately
# Experiment: Kinetic solubility assay
# Type: physicochemical
# Settings: kinetic solubility, 50 mM PB (pH 7.4), shaken 24 hours at RT
# Method in brief: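 Test compounds from 10 mM DMSO stock were diluted in 50 mM phosphate buffer, pH 7.4, and shaken for 24 h at RT. After PTFE filtration and centrifugation, filtrate concentration was quantified by UPLC-UV/HPLC-UV against a standard curve.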
row,SMILES,Solubility (μM)
1,Cc1ccc(-c2noc(C3CCN3CCOC(F)(F)F)n2)cc1NC(=O)c1cnc2ccccn12 (racemic) [Compound I-168],** (a solubility greater than 10 μM and less than or equal to 50 μM)
2,Cc1ccc(-c2noc(C3CCCCN3S(C)(=O)=O)n2)cc1NC(=O)c1cnc2ccccn12 (racemic) [Compound I-174],*** (a solubility greater than 2 μM and less than or equal to 10 μM)
3,Cc1ccc(-c2noc([C@@H]3CCN3C3CC3)n2)cc1NC(=O)c1cnc2ccccn12 (racemic) [Compound I-177],**** (a solubility less than or equal to 2 μM)
4,Cc1ccc(-c2noc([C@@H]3CCN3CC(F)(F)F)n2)cc1NC(=O)c1cnc2ccccn12 (racemic) [Compound I-178],**** (a solubility less than or equal to 2 μM)
5,COCCN1CC[C@H]1c1nc(-c2ccc(C)c(NC(=O)c3cnc4ccccn34)c2)no1 (racemic) [Compound I-179],* (a solubility greater than 50 μM)
6,CCN1CC[C@H]1c1nc(-c2ccc(C)c(NC(=O)c3cnc4ccccn34)c2)no1 (racemic) [Compound I-180],* (a solubility greater than 50 μM)
7,Cc1ccc(-c2noc([C@H](C)NS(=O)(=O)c3cnn(C)c3)n2)cc1NC(=O)c1cnc2ccccn12 (racemic) [Compound I-181],* (a solubility greater than 50 μM)
8,Cc1ccc(-c2noc(CC(O)C(F)(F)F)n2)cc1NC(=O)c1cnc2ccccn12 (racemic) [Compound I-183],**** (a solubility less than or equal to 2 μM)
9,Cc1ccc(-c2noc([C@@H]3CCC(F)(F)CN3)n2)cc1NC(=O)c1cnc2ccccn12 (racemic) [Compound I-198],*** (a solubility greater than 2 μM and less than or equal to 10 μM)
10,Cc1ccc(-c2noc(C3CCN3S(C)(=O)=O)n2)cc1NC(=O)c1cnc2ccccn12 (racemic) [Compound I-356],** (a solubility greater than 10 μM and less than or equal to 50 μM)
